The values that follow are results of earlier work, collected in patent US20070104792A1, “Nanoparticulate tadalafil formulations” (Elan Pharma International, Limited, priority 2005, published 2007).

For the data set the following is noted: conventional crystalline solid.

`CN1CC(=O)N2[C@H](c3ccc4c(c3)OCO4)c3[nH]c4ccccc4c3C[C@@H]2C1=O` [tadalafil, pyrazino[1′,2′:1,6]pyrido[3,4-b]indole-1,4-dione, 6-(1,3-benzodioxol-5-yl)-2,3,6,7,12,12a-hexahydro-2-methyl-, (6R,12aR)]: the Solubility in ethanol entry (ethanol) is recorded as “very slightly soluble in ethanol”. In addition, the Solubility in water entry (water) is on record as “practically insoluble in water”.
